Measurements: patent US20060069132A1, “Azolecarboxamide herbicides” (priority 2004, published 2006)
Read-outs that look alike come from different tables or passages of the source.

Assays:
barnyardgrass = test: Test A pre-/postemergence herbicide test; format: in vivo, Echinochloa crus-galli; settings: for pest or weed control at 500 g/ha / pest or weed control at 2000 g/ha: Echinochloa crus-galli, 240 h
Outline: (§1)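 Sandy loam soil given preemergence directed spray; plants at 2 to 10 cm, one- to two-leaf stage, sprayed to runoff postemergence, compounds in non-phytotoxic solvent with surfactant. Injury rated visually versus untreated controls after about ten greenhouse days, 0 (no effect) to 100 (complete control); dash means not tested.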

large crabgrass = test: Test A pre-/postemergence herbicide test; format: in vivo, Digitaria sanguinalis; settings: for pest or weed control at 500 g/ha / pest or weed control at 2000 g/ha: Digitaria sanguinalis, 240 h
Outline: as §1

redroot pigweed = test: Test A pre-/postemergence herbicide test; format: in vivo, Amaranthus retroflexus; settings: for pest or weed control at 500 g/ha / pest or weed control at 2000 g/ha: Amaranthus retroflexus, 240 h
Outline: as §1

blackgrass = test: Test B postemergence herbicide test; format: in vivo, Alopecurus myosuroides; settings: scale 0 (no effect) to 100 (complete control)
Outline: (§2)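 Each value is a visual 0–100 response rating taken against controls 13 to 15 days after treatment in the greenhouse. Plants received formulated chemical postemergence at the 1- to 4-leaf stage or, in flooded paddy, at the 2-leaf stage.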

[1] = system: small flower umbrella sedge; test: Test B flooded paddy test; format: in vivo, Cyperus difformis; settings: 1000 g ai/ha, visual rating, scale 0 to 100 (0 no effect, 100 complete control), 13 to 15 days
Outline: as §2

bermudagrass = test: Test C pre-/postemergence herbicide test; format: in vivo, Cynodon dactylon; settings: for Plant response rating, Bermudagrass: preemergence; for Bermudagrass plant response rating: Preemergence
Outline: (§3)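 Preemergence: seeds planted and treated with compound in non-phytotoxic solvent with surfactant; postemergence: plants at 2 to 18 cm (1- to 4-leaf stage) sprayed likewise. Kept in greenhouse 12 to 14 days, then visually rated against controls, 0 (no effect) to 100 (complete control).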

woolly cupgrass = test: Test C pre-/postemergence herbicide test; format: in vivo, Eriochloa villosa; settings: for Plant response rating, Cupgrass, Woolly: preemergence; for Cupgrass, Woolly plant response rating: 500 g ai/ha
Outline: as §3

goosegrass = test: Test C pre-/postemergence herbicide test; format: in vivo, Eleusine indica; settings: for Plant response rating, Goosegrass: preemergence; for Goosegrass plant response rating: 500 g ai/ha
Outline: as §3

[2] = Postemergence, 500 g ai/ha, 0 to 100 scale, 0 no effect, 100 complete control
[3] = Postemergence, 2000 g ai/ha, 0 to 100 scale, 0 no effect, 100 complete control
[4] = Preemergence, 2000 g ai/ha, visual rating, 0 to 100 scale (0 no effect, 100 complete control)
[5] = preemergence, 500 g ai/ha, visual injury, 0 to 100 scale (0 no effect, 100 complete control)
[6] = postemergence, 125 g ai/ha, visual rating
[7] = postemergence, 500 g ai/ha, visual rating
[8] = 62 g ai/ha, scale 0 to 100, 0 no effect, 100 complete control
[9] = 125 g ai/ha, scale 0 (no effect) to 100 (complete control), visual, 12 to 14 days
[10] = 500 g ai/ha, scale 0 to 100, 0 no effect, 100 complete control
[11] = Preemergence, scale 0 to 100, 0 no effect, 100 complete control
[12] = Preemergence, 500 g ai/ha, visual rating, 0 to 100 scale (0 no effect, 100 complete control)
[13] = 250 g ai/ha, scale 0 to 100 (0 no effect, 100 complete control), visual, 12 to 14 days

CCN(CC)C(=O)c1cccc(NC(=O)c2sc(C(C)(C)C)nc2C)c1 [Compound 199]
Barnyardgrass plant response rating (barnyardgrass; [2]): 10
Plant response rating, Barnyardgrass (barnyardgrass; [3]): 80
Barnyardgrass plant response rating (barnyardgrass; [4]): 95
Barnyardgrass plant response rating (barnyardgrass; [5]): 55
Crabgrass, Large plant response rating (large crabgrass; [2]): 15
Plant response rating, Crabgrass, Large (large crabgrass; [3]): 50
Crabgrass, Large plant response rating (large crabgrass; [4]): 100
Crabgrass, Large plant response rating (large crabgrass; [5]): 70
Pigweed plant response rating (redroot pigweed; [2]): 80
Plant response rating, Pigweed (redroot pigweed; [3]): 80
Pigweed plant response rating (redroot pigweed; [4]): 100
Pigweed plant response rating (redroot pigweed; [5]): 100
Blackgrass plant response rating (blackgrass; [6]): 0
Blackgrass plant response rating (blackgrass; [7]): 10
Sedge, Umbrella plant response rating [1]: 10
Plant response rating, Bermudagrass (bermudagrass; [8]): 55
Plant response rating, Bermudagrass (bermudagrass; [9]): 85
Plant response rating, Bermudagrass (bermudagrass; 250 g ai/ha, scale 0-100): 100
Bermudagrass plant response rating (bermudagrass; [10]): 100
Plant response rating, Cupgrass, Woolly (woolly cupgrass; 62 g ai/ha, scale 0 to 100): 0
Plant response rating, Cupgrass, Woolly (woolly cupgrass; [9]): 0
Plant response rating, Cupgrass, Woolly (woolly cupgrass; 250 g ai/ha, scale 0-100): 40
Cupgrass, Woolly plant response rating (woolly cupgrass; [11]): 70
Plant response rating, Goosegrass (goosegrass; 62 g ai/ha, scale 0 to 100): 5
Plant response rating, Goosegrass (goosegrass; [9]): 70
Plant response rating, Goosegrass (goosegrass; 250 g ai/ha, scale 0-100): 90
Goosegrass plant response rating (goosegrass; [11]): 95

CCN(CC)C(=O)c1ccnc(NC(=O)c2cc(C(C)(C)C)nn2CC)c1 [Compound 153]
Barnyardgrass plant response rating (barnyardgrass; [2]): 75
Plant response rating, Barnyardgrass (barnyardgrass; [3]): 100
Barnyardgrass plant response rating (barnyardgrass; [12]): 80
Barnyardgrass plant response rating (barnyardgrass; [4]): 90
Crabgrass, Large plant response rating (large crabgrass; [2]): 10
Plant response rating, Crabgrass, Large (large crabgrass; [3]): 20
Crabgrass, Large plant response rating (large crabgrass; [12]): 25
Crabgrass, Large plant response rating (large crabgrass; [4]): 25
Pigweed plant response rating (redroot pigweed; [2]): 95
Plant response rating, Pigweed (redroot pigweed; [3]): 100
Pigweed plant response rating (redroot pigweed; [4]): 100
Pigweed plant response rating (redroot pigweed; [5]): 100
Blackgrass plant response rating (blackgrass; [6]): 10
Blackgrass plant response rating (blackgrass; [7]): 10
Sedge, Umbrella plant response rating [1]: 70
Plant response rating, Bermudagrass (bermudagrass; [8]): 70
Plant response rating, Bermudagrass (bermudagrass; [9]): 95
Plant response rating, Bermudagrass (bermudagrass; [13]): 95
Bermudagrass plant response rating (bermudagrass; [10]): 100
Plant response rating, Cupgrass, Woolly (woolly cupgrass; 62 g ai/ha, scale 0 to 100): 0
Plant response rating, Cupgrass, Woolly (woolly cupgrass; [9]): 0
Plant response rating, Cupgrass, Woolly (woolly cupgrass; [13]): 0
Cupgrass, Woolly plant response rating (woolly cupgrass; [11]): 60
Plant response rating, Goosegrass (goosegrass; 62 g ai/ha, scale 0 to 100): 55
Plant response rating, Goosegrass (goosegrass; [9]): 75
Goosegrass plant response rating (goosegrass; [11]): 95

CCn1nc(C(C)(C)C)cc1C(=O)Nc1cccc(C(=O)OCCF)c1 [Compound 82, 2-fluoroethyl 3-[[[3-(1,1-dimethylethyl)-1-ethyl-1H-pyrazol-5-yl]-carbonyl]amino]benzoate]
pest or weed control at 500 g/ha (barnyardgrass; post-emergence, Postemergence, 500 g ai/ha, 0 to 100 scale, 0 no effect, 100 complete control, read-out: Plant response rating, Barnyardgrass): 20%
pest or weed control at 2000 g/ha (barnyardgrass; post-emergence, Postemergence, 2000 g ai/ha, 0 to 100 scale, 0 no effect, 100 complete control, read-out: Plant response rating, Barnyardgrass): 20%
pest or weed control at 500 g/ha (barnyardgrass; pre-emergence, Preemergence, 500 g ai/ha, visual rating, 0 to 100 scale (0 no effect, 100 complete control), read-out: Barnyardgrass plant response rating): 0%
pest or weed control at 2000 g/ha (barnyardgrass; pre-emergence, Preemergence, 2000 g ai/ha, 0 to 100 scale, 0 no effect, 100 complete control, read-out: Barnyardgrass plant response rating): 0%
pest or weed control at 500 g/ha (large crabgrass; post-emergence, Postemergence, 500 g ai/ha, 0 to 100 scale, 0 no effect, 100 complete control, read-out: Plant response rating, Crabgrass, Large): 20%
pest or weed control at 2000 g/ha (large crabgrass; post-emergence, Postemergence, 2000 g ai/ha, 0 to 100 scale, 0 no effect, 100 complete control, read-out: Plant response rating, Crabgrass, Large): 30%
pest or weed control at 500 g/ha (large crabgrass; pre-emergence, Preemergence, 500 g ai/ha, visual rating, 0 to 100 scale (0 no effect, 100 complete control), read-out: Crabgrass, Large plant response rating): 0%
pest or weed control at 2000 g/ha (large crabgrass; pre-emergence, Preemergence, 2000 g ai/ha, 0 to 100 scale, 0 no effect, 100 complete control, read-out: Crabgrass, Large plant response rating): 0%
pest or weed control at 500 g/ha (redroot pigweed; post-emergence, Postemergence, 500 g ai/ha, 0 to 100 scale, 0 no effect, 100 complete control, read-out: Plant response rating, Pigweed): 50%
pest or weed control at 2000 g/ha (redroot pigweed; post-emergence, Postemergence, 2000 g ai/ha, 0 to 100 scale, 0 no effect, 100 complete control, read-out: Plant response rating, Pigweed): 50%
pest or weed control at 500 g/ha (redroot pigweed; pre-emergence, Preemergence, 500 g ai/ha, visual rating, 0 to 100 scale (0 no effect, 100 complete control), read-out: Pigweed plant response rating): 5%
pest or weed control at 2000 g/ha (redroot pigweed; pre-emergence, Preemergence, 2000 g ai/ha, 0 to 100 scale, 0 no effect, 100 complete control, read-out: Pigweed plant response rating): 35%
pest or weed control at 125 g/ha (blackgrass; Alopecurus myosuroides, post-emergence, 336 h, postemergence, 125 g ai/ha, visual rating, read-out: Blackgrass plant response rating): 0%
Plant response rating, Blackgrass (blackgrass; Postemergence, 500 g ai/ha, visual rating after 13 to 15 days): 10
pest or weed control at 1000 g/ha ([1]; Cyperus difformis, 336 h, read-out: Sedge, Umbrella plant response rating): 40%
pest or weed control at 250 g/ha (bermudagrass; Cynodon dactylon, post-emergence, 312 h, Postemergence, 250 g ai/ha, scale 0 to 100, read-out: Bermudagrass plant response rating): 0%
pest or weed control at 500 g/ha (bermudagrass; Cynodon dactylon, post-emergence, 312 h, Postemergence, 500 g ai/ha, scale 0 to 100, read-out: Bermudagrass plant response rating): 10%
pest or weed control at 125 g/ha (bermudagrass; Cynodon dactylon, post-emergence, 312 h, postemergence, 125 g ai/ha, scale 0 to 100, read-out: Plant response rating, Bermudagrass): 0%
pest or weed control at 62 g/ha (bermudagrass; Cynodon dactylon, post-emergence, 312 h, postemergence, 62 g ai/ha, scale 0 to 100, read-out: Plant response rating, Bermudagrass): 0%
pest or weed control at 250 g/ha (woolly cupgrass; Eriochloa villosa, post-emergence, 312 h, Postemergence, 250 g ai/ha, scale 0 to 100, 0 no effect, 100 complete control, read-out: Plant response rating, Cupgrass, Woolly): 80%
pest or weed control at 125 g/ha (woolly cupgrass; Eriochloa villosa, post-emergence, 312 h, postemergence, 125 g ai/ha, scale 0 to 100, read-out: Plant response rating, Cupgrass, Woolly): 60%
Cupgrass, Woolly plant response rating (woolly cupgrass; Postemergence, scale 0 to 100): 80
pest or weed control at 250 g/ha (goosegrass; Eleusine indica, post-emergence, 312 h, Postemergence, 250 g ai/ha, scale 0 to 100, 0 no effect, 100 complete control, read-out: Plant response rating, Goosegrass): 10%
pest or weed control at 125 g/ha (goosegrass; Eleusine indica, post-emergence, 312 h, postemergence, 125 g ai/ha, scale 0 to 100, read-out: Plant response rating, Goosegrass): 10%
pest or weed control at 62 g/ha (goosegrass; Eleusine indica, post-emergence, 312 h, postemergence, 62 g ai/ha, scale 0 to 100, read-out: Plant response rating, Goosegrass): 0%
Goosegrass plant response rating (goosegrass; Postemergence, scale 0 to 100): 10
